Patent US20080261286A1, “Methods for producing optically active alpha-hydroxy amides” (Daicel Chemical Industries, Ltd., priority 2004, published 2008)

T1: α-ketoamide reductase (Saccharomyces cerevisiae, UniProt Q07551)
T1 construct: 500 g of live baker's yeast was purchased from Oriental yeast and the fungal cells were used to purify the enzyme; tissue Oriental Yeast; host or cells: live baker's yeast cells; enzyme purified to a single SDS-PAGE band
T1 sequence (Q07551 1-312): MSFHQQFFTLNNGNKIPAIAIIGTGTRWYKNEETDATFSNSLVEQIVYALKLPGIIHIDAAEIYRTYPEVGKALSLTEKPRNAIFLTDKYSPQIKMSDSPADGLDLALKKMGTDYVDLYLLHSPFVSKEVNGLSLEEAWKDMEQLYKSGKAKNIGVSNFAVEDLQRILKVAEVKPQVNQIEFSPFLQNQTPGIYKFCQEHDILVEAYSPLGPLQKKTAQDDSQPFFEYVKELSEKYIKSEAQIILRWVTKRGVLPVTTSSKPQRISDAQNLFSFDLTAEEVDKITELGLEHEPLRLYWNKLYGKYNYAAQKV


biological target: T1, α-ketoamide reductase; test: Substrate specificity of α-ketoamide reductase (relative reducing activity); assay type: biochemical; details: activity of reducing 2-chlorobenzoyl formamide taken as 100, substrate concentration 1 mM
Experimental: (§1) The enzyme is incubated in a reaction solution containing 100 mM potassium phosphate buffer (pH 6.5), 0.2 mM NADPH, and 1 mM 2-chlorobenzoyl formamide at 30° C. Adecrease in NADPH concentration is assessed by the decrease in absorbance at 340 nm. 1 U is defined as the amount of enzyme required to catalyze the decrease of 1 μmol NADPH in one minute.
The enzyme obtained in Example 1 was incubated with any one of various α-ketoamides, α-ketoesters, β-ketoesters, aldehydes, ketones, and others. The reducing activity is represented as a relative activity when the activity of reducing 2-chlorobenzoyl formamide is taken as 100.

| Reducing activity (%) | Molecule |
| --- | --- |
| 0 | COCC(C)=O |
| 49 | CCCCC(=O)C(=O)OCC |
| 59 | NC(=O)C(=O)c1ccccc1 |
| 0 | CCOC(=O)C(C)C(C)=O (centres unmarked) |
| 71 | CCOC(=O)C(=O)C(C)C [drawing 11] |
| 46 | CCCC(=O)C(=O)OCC [drawing 8] |
| 50 | CCCCCC(=O)C(=O)OCC [drawing 10] |
| 71 | NC(=O)C(=O)c1ccc(Cl)cc1 |
| 19 | CC1(C)COC(=O)C1=O |
| 32 | CCOC(=O)C(=O)c1ccccc1 [drawing 5] |
| 0 | CC(C)C(=O)C(=O)O |
| 143 | NC(=O)C(=O)c1cccc(Cl)c1 |
| 0 | C=CCC(C(C)=O)C(=O)OCC (centres unmarked) |
| 9 | CCOC(=O)C(C)=O [drawing 6] |
| 33 | CCOC(=O)C(=O)CC [drawing 7] |
| 0 | CC(=O)COC(C)=O |
| 10 | O=C1CCCCC1=O |
| 120 | O=CC(=O)c1ccccc1 |
| 0 | CCOC(=O)CC(=O)c1ccccc1 |
| 100 | NC(=O)C(=O)c1ccccc1Cl [2-chlorobenzoyl formamide] |

| Molecule | Reducing activity (%) |
| --- | --- |
| O=C(CCl)c1ccccc1 | 0 |
| CC(=O)c1ccccc1 | 0 |
| CCOC(=O)CC(=O)CCl | 4 |
| CCOC(=O)C(Cl)C(C)=O (centres unmarked) | 0 |

biological target: T1, α-ketoamide reductase; test: Stereoselectivity of α-ketoamide reductase (optical purity of reduction product); assay type: biochemical; details: product of reduction; 0.2 U purified enzyme, 10 μmol substrate, 10 μmol NADPH, pH 7.0, 37° C., 6 hours
Experimental: 0.2 U of the purified enzyme and each of various α-ketoamides and α-ketoesters (10 μmol each) were incubated in 0.5 ml of 0.1 M potassium phosphate buffer (pH 7.0) in the presence of 10 μmol NADPH at 37° C. for 6 hours. The resulting α-hydroxy amides and α-hydroxyesters were extracted with ether, and then the optical purity of each compound was determined.
The optical purity was determined by the procedure described below.
The optical purity of 2-chloromandelamide was determined by chiral HPLC method or chiral GC method. The chiral HPLC method comprises chromatography using CHIRALPAK AS-H (DAICEL CHEMICAL INDUSTRIES, LTD.). The elution was carried out using a mixed solution of n-hexane and ethanol (85:15) at a flow rate 1.0 mL/min and a column temperature of 25° C. The elution peak for the compound was detected by UV absorbance at 254 nm. Under these conditions, 2-chloromandelamide was eluted 7.5 minutes (R-isomer) and 10.1 minutes (S-isomer) after the start of elution.
The chiral GC method comprises chromatography using GAMMA DEX 225 (SUPELCO; 30 m×0.25 mm×0.25 μm film thickness) under the following conditions: column temperature, 190° C.; injection temperature, 220° C.; detection temperature 220° C.; carrier gas, He/1.0 kg/cm^2. Under the conditions described above, the S-isomer was eluted 27.0 minutes, and the R-isomer was eluted 29.3 minutes after the start of the elution.
The optical purities of the other α-hydroxyesters were determined by the chiral GC method described below using Chirasil-DEX CB column (Varian; […]×0.25 μm film thickness). GAMMA DEX 225 was used to determine the optical purities of ethyl lactate (injection temperature, 180° C.; column temperature, […]; detection temperature, 180° C.; R-isomer, 6.13 minutes; S-isomer, 6.82 minutes), ethyl 2-hydroxybutyrate (injection temperature, 180° C.; column temperature, 100° C.; detection temperature, 180° C.; R-isomer, 5.88 minutes; S-isomer, 6.32 minutes), ethyl 2-hydroxyvalerate (injection temperature, 180° C.; column temperature, 110° C.; detection temperature, 180° C.; R-isomer, 6.17 minutes; S-isomer, 6.88 minutes), ethyl 2-hydroxy heptanoate (injection temperature, 180° C.; column temperature, 120° C.; detection temperature, 180° C.; R-isomer, 11.20 minutes; S-isomer, 12.00 minutes), and 2-hydroxyisovalerate (injection temperature, 180° C.; column temperature, 90° C.; detection temperature, 180° C.; R-isomer, 10.42 minutes; S-isomer, 10.89 minutes).

| Optical purity (%) | Molecule |
| --- | --- |
| >99 | CCOC(=O)C(=O)CC [drawing 27] |
| >99 | CCOC(=O)C(C)=O [drawing 26] |
| >99 | CCOC(=O)C(=O)C(C)C [drawing 30] |
| >99 | NC(=O)C(=O)c1ccccc1Cl [drawing 25] |
| 98 | CCCC(=O)C(=O)OCC [drawing 28] |
| 97 | CCOC(=O)C(=O)c1ccccc1 [drawing 31] |
| >99 | CCCCCC(=O)C(=O)OCC [drawing 29] |

same assay, conditions: purified enzyme (summary)

| purity of (R)-2-chloromandelamide produced [%] | Molecule |
| --- | --- |
| ≥ 99 | NC(=O)C(=O)c1ccccc1Cl [2-chlorobenzoyl formamide] |

tested on: not listed separately; test: 2-chlorobenzoyl formamide-reducing activity of enzyme preparations; assay type: biochemical; details: purified enzyme; 1 mM 2-chlorobenzoyl formamide, 0.2 mM NADPH, pH 6.5, 30° C.
Experimental: as §1
Cells of E. coli DH10B strain containing pSE-YDL1 or pSG-YDL1 were grown on LB medium containing ampicillin. Cells were induced with 0.1 mM IPTG for 4 hours, and then the cells were harvested by centrifugation.
Each sample of cells was suspended in cell lysis buffer (50 mM potassium phosphate buffer (pH 8.0) containing 0.02% 2-mercaptoethanol). The cells were crushed by sonication. Then, the lysates were centrifuged and the resulting supernatants were saved as cell-free extracts.

| Molecule | specific activity |
| --- | --- |
| α-ketoamide reductase: NADPH-dependent α-ketoamide reductase purified from baker's yeast, encoded by YDL124w (SEQ ID NO: 2) (protein, listed as Saccharomyces cerevisiae) MSFHQQFFTLNNGNKIPAIAIIGTGTRWYKNEETDATFSNSLVEQIVYALKLPGIIHIDAAEIYRTYPEVGKALSLTEKPRNAIFLTDKYSPQIKMSDSPADGLDLALKKMGTDYVDLYLLHSPFVSKEVNGLSLEEAWKDMEQLYKSGKAKNIGVSNFAVEDLQRILKVAEVKPQVNQIEFSPFLQNQTPGIYKFCQEHDILVEAYSPLGPLQKKTAQDDSQPFFEYVKELSEKYIKSEAQIILRWVTKRGVLPVTTSSKPQRISDAQNLFSFDLTAEEVDKITELGLEHEPLRLYWNKLYGKYNYAAQKV | about 105 U/mg |

same assay, conditions: purified enzyme; 1 mM 2-chlorobenzoyl formamide, 0.2 mM NADPH, pH 6.5, 30° C.; listed as purified enzyme

| Molecule | specific activity [U/mg] |
| --- | --- |
| α-ketoamide reductase: NADPH-dependent α-ketoamide reductase purified from baker's yeast, encoded by YDL124w (SEQ ID NO: 2) (protein, listed as Saccharomyces cerevisiae) MSFHQQFFTLNNGNKIPAIAIIGTGTRWYKNEETDATFSNSLVEQIVYALKLPGIIHIDAAEIYRTYPEVGKALSLTEKPRNAIFLTDKYSPQIKMSDSPADGLDLALKKMGTDYVDLYLLHSPFVSKEVNGLSLEEAWKDMEQLYKSGKAKNIGVSNFAVEDLQRILKVAEVKPQVNQIEFSPFLQNQTPGIYKFCQEHDILVEAYSPLGPLQKKTAQDDSQPFFEYVKELSEKYIKSEAQIILRWVTKRGVLPVTTSSKPQRISDAQNLFSFDLTAEEVDKITELGLEHEPLRLYWNKLYGKYNYAAQKV | 105 |

tested on: not listed separately; test: pH and temperature dependency and stability of α-ketoamide reductase; assay type: biochemical; details: 100 mM potassium phosphate buffer (pH 7.0), 30 minutes
Experimental: The pH of the reaction solution was altered using 0.1 M sodium acetate buffer (pH 4.0-5.5), potassiumphosphate buffer (pH 5.5-7.5), Tris-hydrochloride buffer (pH 7.5-9.0), and glycine-potassium hydroxide buffer (pH 9.0-10.5) to assess the pH dependency of the 2-chlorobenzoyl formamide-reducing activity of the enzyme obtained in Example 1. The activity at each pH was determined as a relative activity when the maximal activity was taken as 100. The optimal pH (pH range in which the relative activity is 80% or higher) was 5.5-6.5.
The enzyme obtained in Example 1 was assessed for 2-chlorobenzoyl formamide-reducing activity under standard reaction conditions at various temperatures. The activity at each temperature was determined as a relative activity when the maximal activity was taken as 100. The optimal temperature (temperature range in which the relative activity is 80% or higher) was 35 to 47° C.
The purified enzyme was incubated in 0.1 M sodium acetate buffer (pH 4.0-5.5), 0.1 M potassium phosphate buffer (pH 6.0-7.5), 0.1 M Tris-hydrochloride buffer (pH 8.0-9.0), or 0.1 M glycine-potassium hydroxide buffer (pH 9.5-10.5) at 37° C. for 10 minutes. Then, the enzymatic activity was determined as a relative activity when the activity before the treatment was taken as 100. The stable pH range (pH range in which the residual activity is 80% or higher) was pH 5.5 to 9.5.
The purified enzyme was incubated in 100 mM potassium phosphate buffer (pH 7.0) at 20 to 50° C. for 30 minutes. The temperature range in which the enzyme activity is stable (temperature range in which the residual activity is 80% or higher) falls within the range comprising 40° C. and lower temperatures.

| Molecule | temperature range in which the residual activity is 80% or higher [°C] |
| --- | --- |
| α-ketoamide reductase: NADPH-dependent α-ketoamide reductase purified from baker's yeast, encoded by YDL124w (SEQ ID NO: 2) (protein, listed as Saccharomyces cerevisiae) MSFHQQFFTLNNGNKIPAIAIIGTGTRWYKNEETDATFSNSLVEQIVYALKLPGIIHIDAAEIYRTYPEVGKALSLTEKPRNAIFLTDKYSPQIKMSDSPADGLDLALKKMGTDYVDLYLLHSPFVSKEVNGLSLEEAWKDMEQLYKSGKAKNIGVSNFAVEDLQRILKVAEVKPQVNQIEFSPFLQNQTPGIYKFCQEHDILVEAYSPLGPLQKKTAQDDSQPFFEYVKELSEKYIKSEAQIILRWVTKRGVLPVTTSSKPQRISDAQNLFSFDLTAEEVDKITELGLEHEPLRLYWNKLYGKYNYAAQKV | ≤ 40 |

same assay, conditions: 2-chlorobenzoyl formamide-reducing activity

| Molecule | optimal pH (pH range in which the relative activity is 80% or higher) |
| --- | --- |
| α-ketoamide reductase: NADPH-dependent α-ketoamide reductase purified from baker's yeast, encoded by YDL124w (SEQ ID NO: 2) (protein, listed as Saccharomyces cerevisiae) MSFHQQFFTLNNGNKIPAIAIIGTGTRWYKNEETDATFSNSLVEQIVYALKLPGIIHIDAAEIYRTYPEVGKALSLTEKPRNAIFLTDKYSPQIKMSDSPADGLDLALKKMGTDYVDLYLLHSPFVSKEVNGLSLEEAWKDMEQLYKSGKAKNIGVSNFAVEDLQRILKVAEVKPQVNQIEFSPFLQNQTPGIYKFCQEHDILVEAYSPLGPLQKKTAQDDSQPFFEYVKELSEKYIKSEAQIILRWVTKRGVLPVTTSSKPQRISDAQNLFSFDLTAEEVDKITELGLEHEPLRLYWNKLYGKYNYAAQKV | 5.5-6.5 |

same assay, conditions: 37° C. for 10 minutes

| Molecule | stable pH range (pH range in which the residual activity is 80% or higher) |
| --- | --- |
| α-ketoamide reductase: NADPH-dependent α-ketoamide reductase purified from baker's yeast, encoded by YDL124w (SEQ ID NO: 2) (protein, listed as Saccharomyces cerevisiae) MSFHQQFFTLNNGNKIPAIAIIGTGTRWYKNEETDATFSNSLVEQIVYALKLPGIIHIDAAEIYRTYPEVGKALSLTEKPRNAIFLTDKYSPQIKMSDSPADGLDLALKKMGTDYVDLYLLHSPFVSKEVNGLSLEEAWKDMEQLYKSGKAKNIGVSNFAVEDLQRILKVAEVKPQVNQIEFSPFLQNQTPGIYKFCQEHDILVEAYSPLGPLQKKTAQDDSQPFFEYVKELSEKYIKSEAQIILRWVTKRGVLPVTTSSKPQRISDAQNLFSFDLTAEEVDKITELGLEHEPLRLYWNKLYGKYNYAAQKV | 5.5 to 9.5 |

same assay, conditions: standard reaction conditions

| Molecule | optimal temperature (temperature range in which the relative activity is 80% or higher) [°C] |
| --- | --- |
| α-ketoamide reductase: NADPH-dependent α-ketoamide reductase purified from baker's yeast, encoded by YDL124w (SEQ ID NO: 2) (protein, listed as Saccharomyces cerevisiae) MSFHQQFFTLNNGNKIPAIAIIGTGTRWYKNEETDATFSNSLVEQIVYALKLPGIIHIDAAEIYRTYPEVGKALSLTEKPRNAIFLTDKYSPQIKMSDSPADGLDLALKKMGTDYVDLYLLHSPFVSKEVNGLSLEEAWKDMEQLYKSGKAKNIGVSNFAVEDLQRILKVAEVKPQVNQIEFSPFLQNQTPGIYKFCQEHDILVEAYSPLGPLQKKTAQDDSQPFFEYVKELSEKYIKSEAQIILRWVTKRGVLPVTTSSKPQRISDAQNLFSFDLTAEEVDKITELGLEHEPLRLYWNKLYGKYNYAAQKV | 35 to 47 |
